# Assays:
# ABUTH (Velvetleaf) = test: Postemergence herbicidal evaluation; format: in vivo, Abutilon theophrasti
# How it was run: (§1)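 Visual 0-9 injury score (stand, vigor, malformation, size, chlorosis, appearance vs untreated) taken four to five weeks post-spray, averaged across repeat tests. Test plants about two weeks old; foliar spray of acetone/water (1:1) with 0.5% surfactant delivering ~0.0156-0.500 kg active/ha.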
# AMBEL (Ragweed, Common) [1] = test: Postemergence herbicidal evaluation; format: in vivo, Ambrosia artemisifolia
# How it was run: as §1
# [2] = tested on: CHEAL (Lambsquarters, Common); test: Postemergence herbicidal evaluation; format: in vivo, Chenopodium album
# How it was run: as §1
# ECHCG (Barnyardgrass) = test: Postemergence herbicidal evaluation; format: in vivo, Echinochloa crus-galli
# How it was run: as §1
# [3] = tested on: GLXMAW (Soybean, Williams); test: Postemergence herbicidal evaluation; format: in vivo, Glycine max, (L.) Merr. cv Williams
# How it was run: as §1
# ORYSAT (Rice, Tebonnet) = test: Postemergence herbicidal evaluation; format: in vivo, Oryza sativa, (L.) Tebonnet
# How it was run: as §1
# ZEAMX (Corn, Field) = test: Postemergence herbicidal evaluation; format: in vivo, Zea mays
# How it was run: as §1
# AMBEL (Ragweed, Common) [4] = test: Preemergence herbicidal evaluation; format: in vivo, Ambrosia artemisifolia; details: rated 4-5 weeks after treatment
# How it was run: (§2)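 Seeds were mixed with potting soil and planted on about one inch of soil, then sprayed with test compound in aqueous acetone at about 0.0156 to 0.500 kg per hectare. Plants grew under standard greenhouse care and were visually rated 0-9 against untreated controls 4-5 weeks post-treatment.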
# CASOB (Sicklepod) = test: Preemergence herbicidal evaluation; format: in vivo, Cassia obtusifolia; details: rated 4-5 weeks after treatment
# How it was run: as §2
# [5] = tested on: CHEAL (Lambsquarters, Common); test: Preemergence herbicidal evaluation; format: in vivo, Chenopodium album; details: rated 4-5 weeks after treatment
# How it was run: as §2
# GALAP (Galium) = test: Preemergence herbicidal evaluation; format: in vivo, Galium aparine; details: rated 4-5 weeks after treatment
# How it was run: as §2
# CYPSE (Flatsedge) = test: Preemergence weed control under flooded paddy conditions; format: in vivo, Cyperus serotinus; details: rated 3-4 weeks after treatment
# How it was run: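 Flooded-pot preemergence screen with silt loam and seeds in the upper 0.5 cm. Dose about 0.0313 to 0.500 kg/ha, delivered into flood water; visual 0-9 score after 3 to 4 weeks.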
# [6] = postemergence, rate 0.0625 kg/ha
structure (smiles),measurement,setting,value
"CCCN1C(=O)CSC1=Nc1cc(-n2c(=O)cc(C(F)(F)F)n(C)c2=O)c(F)cc1Cl [Compound 171, 3-{4-Chloro-2-fluoro-5-[(4-oxo-3-propyl-2-thiazolidinylidene)amino]phenyl}-1-methyl-6-(trifluoromethyl)-2,4 (1H, 3H)-pyrimidinedione]",Postemergence herbicidal rating ABUTH,ABUTH (Velvetleaf); Rate 0.0156 kg/ha,9.0
same,Postemergence herbicidal rating ABUTH,ABUTH (Velvetleaf); Rate 0.0313 kg/ha,9.0
same,herbicidal rating ABUTH,ABUTH (Velvetleaf); [6],9.0
same,Postemergence herbicidal rating AMBEL,"AMBEL (Ragweed, Common) [1]; Rate 0.0156 kg/ha",6.0
same,Postemergence herbicidal rating AMBEL,"AMBEL (Ragweed, Common) [1]; Rate 0.0313 kg/ha",9.0
same,herbicidal rating AMBEL,"AMBEL (Ragweed, Common) [1]; [6]",9.0
same,Postemergence herbicidal rating CHEAL,[2]; Rate 0.0156 kg/ha,7.0
same,Postemergence herbicidal rating CHEAL,[2]; Rate 0.0313 kg/ha,9.0
same,herbicidal rating CHEAL,[2]; [6],9.0
same,Postemergence herbicidal rating ECHCG,ECHCG (Barnyardgrass); Rate 0.0156 kg/ha,4.0
same,Postemergence herbicidal rating ECHCG,ECHCG (Barnyardgrass); Rate 0.0313 kg/ha,4.0
same,herbicidal rating ECHCG,ECHCG (Barnyardgrass); [6],3.0
same,Postemergence herbicidal rating GLXMAW,[3]; Rate 0.0156 kg/ha,5.5
same,Postemergence herbicidal rating GLXMAW,[3]; Rate 0.0313 kg/ha,6.5
same,herbicidal rating GLXMAW,[3]; [6],7.0
same,Postemergence herbicidal rating ORYSAT,"ORYSAT (Rice, Tebonnet); Rate 0.0156 kg/ha",3.5
same,Postemergence herbicidal rating ORYSAT,"ORYSAT (Rice, Tebonnet); Rate 0.0313 kg/ha",4.0
same,herbicidal rating ORYSAT,"ORYSAT (Rice, Tebonnet); [6]",5.0
same,Postemergence herbicidal rating ZEAMX,"ZEAMX (Corn, Field); Rate 0.0156 kg/ha",5.0
same,Postemergence herbicidal rating ZEAMX,"ZEAMX (Corn, Field); Rate 0.0313 kg/ha",6.5
same,herbicidal rating ZEAMX,"ZEAMX (Corn, Field); [6]",7.0
same,Preemergence herbicidal rating AMBEL,"AMBEL (Ragweed, Common) [4]; 0.0156 kg/ha",3.0
same,Preemergence herbicidal rating AMBEL,"AMBEL (Ragweed, Common) [4]; 0.0313 kg/ha",4.0
same,Preemergence herbicidal rating AMBEL,"AMBEL (Ragweed, Common) [4]; 0.0625 kg/ha",9.0
same,Preemergence herbicidal rating AMBEL,"AMBEL (Ragweed, Common) [4]; 0.1250 kg/ha",9.0
same,Preemergence herbicidal rating AMBEL,"AMBEL (Ragweed, Common) [4]; 0.2500 kg/ha",9.0
same,Preemergence herbicidal rating CASOB,CASOB (Sicklepod); 0.0156 kg/ha,4.0
same,Preemergence herbicidal rating CASOB,CASOB (Sicklepod); 0.0313 kg/ha,5.0
same,Preemergence herbicidal rating CASOB,CASOB (Sicklepod); 0.0625 kg/ha,2.0
same,Preemergence herbicidal rating CASOB,CASOB (Sicklepod); 0.1250 kg/ha,4.0
same,Preemergence herbicidal rating CASOB,CASOB (Sicklepod); 0.2500 kg/ha,9.0
same,Preemergence herbicidal rating CHEAL,[5]; 0.0156 kg/ha,9.0
same,Preemergence herbicidal rating CHEAL,[5]; 0.0313 kg/ha,9.0
same,Preemergence herbicidal rating CHEAL,[5]; 0.0625 kg/ha,9.0
same,Preemergence herbicidal rating CHEAL,[5]; 0.1250 kg/ha,9.0
same,Preemergence herbicidal rating CHEAL,[5]; 0.2500 kg/ha,9.0
same,Preemergence herbicidal rating GALAP,GALAP (Galium); 0.0156 kg/ha,0.0
same,Preemergence herbicidal rating GALAP,GALAP (Galium); 0.0313 kg/ha,0.0
same,Preemergence herbicidal rating GALAP,GALAP (Galium); 0.1250 kg/ha,5.0
same,Preemergence herbicidal rating GALAP,GALAP (Galium); 0.2500 kg/ha,6.0
same,"herbicidal effect rating, CYPSE",CYPSE (Flatsedge); 0.0313 kg/ha,9.0
same,"herbicidal effect rating, CYPSE",CYPSE (Flatsedge); 0.0625 kg/ha,9.0
same,"herbicidal effect rating, CYPSE",CYPSE (Flatsedge); 0.1250 kg/ha,9.0
same,"herbicidal effect rating, CYPSE",CYPSE (Flatsedge); 0.2500 kg/ha,9.0

# From patent US20020137929A1, “1 - (3-heterocyclylphenyl) isothiourea, -isourea, -guanidine and -amidine herbicidal agents” (Intellectual Property Department, BASF Aktiengesellschaft, priority 1998, published 2002)
